Here are results for 47 compounds from patent US7101878B1 (Agouron Pharmaceuticals, Inc., priority 1998, dated 2006).

This experiment concerns the target T1, human GnRH receptor (Homo sapiens, UniProt P30968).
T1 construct: expressed in transfected cells; host or cells: HEK 293 (hGnRH-R/293, from Dr. Stuart Sealfon)
T1 sequence (P30968 1-328): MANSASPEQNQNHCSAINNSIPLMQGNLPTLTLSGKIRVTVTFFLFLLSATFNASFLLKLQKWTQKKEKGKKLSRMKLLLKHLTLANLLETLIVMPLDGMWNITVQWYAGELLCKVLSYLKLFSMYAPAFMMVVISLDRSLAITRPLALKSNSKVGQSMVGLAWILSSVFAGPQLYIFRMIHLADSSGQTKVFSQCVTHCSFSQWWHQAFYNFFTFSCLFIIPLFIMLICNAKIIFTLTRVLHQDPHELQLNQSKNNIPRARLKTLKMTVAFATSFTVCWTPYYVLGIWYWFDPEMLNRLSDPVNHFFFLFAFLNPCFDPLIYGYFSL
Nature of the experiment: Radioligand binding, 125I-GnRH-A displacement, membranes of HEK 293 cells with human GnRH receptor. The procedure:
All compounds were diluted in 1% DMSO (final assay concentration) in binding assay buffer. […] Reactions were terminated by rapid filtration onto 96-well Packard GF/C filters soaked in 0.1% polyethyleneimine. Filters were washed three times with PBS buffer, dried and counted on a Packard Topcount by liquid scintillation counting.
Assay conditions were identical for assessing compound activities at other species. […] IC50 values for control peptides and test compounds were calculated utilizing GraphPad Prism™ software.
Crude compounds were tested using the competitive radioligand binding assay described above.
The reaction mixture was vortexed and incubated for 1 min at room temperature. After one min, the mixture was vortexed and allowed to incubate for an additional minute. 2 ml of 0.5 M acetic acid/1% BSA was added to the reaction tube and the mixture was added to a C18 Sep-Pak cartridge. The cartridge was washed with subsequent washes of 5 ml H2O and 5 ml 0.5M acetic acid and then eluted with 5×1 ml of 60% CH3CN/40% 0.5M acetic acid. The eluate was diluted with 3× volume of HPLC buffer A (0.1% TFA in H2O) and loaded onto a C18 column. The iodinated product was eluted over 20-25 min with a gradient of 25-100% CH3CN containing 0.1% TFA. The radioactive fractions (750 ed/fraction) are collected into clean polypropylene tubes containing 100 μl of 10% BSA. Fractions were assessed for biological activity by radioligand binding.
S%R is the substrate remaining.

Setting [1] is: 1 uM, read-out: % Inhib. @ 1 uM hGnRH.
Setting [2] is: 1 h, repeat of % Inhib. at 1 uM, read-out: Repeats @ 1 uM hGnRH.

Like-named read-outs stand apart in the source and are kept apart here.

In the case of `Cc1cc2c(cc1Cc1ccc(C(=O)N3CCN(c4cccc(C(F)(F)F)c4)CC3)o1)C(C)(C)CCC2(C)C`, the inhibition at 1 µM was -25% under setting [1] and 3% under setting [2].
The corresponding values for `CCOC(=O)N1CCC(NC(=O)c2ccc(Cc3cc4c(cc3C)C(C)(C)CCC4(C)C)o2)CC1` are 15% and 16%.
The matching figures for `Cc1cc2c(cc1Cc1ccc(C(=O)NCCc3ccc(O)cc3)o1)C(C)(C)CCC2(C)C`: 19% and 29%.
Turning to `Cc1cc2c(cc1Cc1ccc(C(=O)NCCc3cccc(Cl)c3)o1)C(C)(C)CCC2(C)C`, the inhibition at 1 µM under setting [1] was 15% and the inhibition at 1 µM under setting [2] stood at 21%.
The corresponding values for `Cc1cc2c(cc1Cc1ccc(C(=O)NCCN(C)C)o1)C(C)(C)CCC2(C)C` are -4% and -7%.
The matching figures for `Cc1cc2c(cc1Cc1ccc(C(=O)NCc3ccc(C(F)(F)F)cc3)o1)C(C)(C)CCC2(C)C`: 40% and 41%.
The matching figures for `Cc1cc2c(cc1Cc1ccc(C(=O)N3CCN(c4cccc(Cl)c4)CC3)o1)C(C)(C)CCC2(C)C`: -22% and 9%.
Turning to `Cc1cc2c(cc1Cc1ccc(C(=O)N3CCN(c4ccc(Cl)c(Cl)c4)CC3)o1)C(C)(C)CCC2(C)C`, the inhibition at 1 µM was -20% under setting [1] and -7% under setting [2].
With `Cc1cc2c(cc1Cc1ccc(C(=O)N3CCN(c4ccc(F)cc4)CC3)o1)C(C)(C)CCC2(C)C`, the inhibition at 1 µM runs as follows: under setting [1], -24%; under setting [2], 9%.
In the case of `Cc1cc2c(cc1Cc1ccc(C(=O)N3CCN(c4ccc([N+](=O)[O-])cc4)CC3)o1)C(C)(C)CCC2(C)C`, the inhibition at 1 µM under setting [1] was -18% and the inhibition at 1 µM under setting [2] came out at 6%.
The corresponding values for `Cc1cc2c(cc1Cc1ccc(C(=O)N3CCN(c4ccccc4F)CC3)o1)C(C)(C)CCC2(C)C` are 24% and 3%.
For `Cc1cc2c(cc1Cc1ccc(C(=O)NC3COC(C)(C)O[C@H]3c3ccccc3)o1)C(C)(C)CCC2(C)C` (stereo partly shown), the inhibition at 1 µM is, setting by setting: under setting [1], -6%; under setting [2], 0%.
Take `Cc1cc2c(cc1Cc1ccc(C(=O)NCc3cc(Cl)ccc3Cl)o1)C(C)(C)CCC2(C)C`: the inhibition at 1 µM under setting [1] is 26% and the inhibition at 1 µM under setting [2] amounted to 34%.
The corresponding values for `Cc1cc2c(cc1Cc1ccc(C(=O)NCCc3c(Cl)cccc3Cl)o1)C(C)(C)CCC2(C)C` are -40% and 17%.
The matching figures for `Cc1cc2c(cc1Cc1ccc(C(=O)NCc3cccc(C(F)(F)F)c3)o1)C(C)(C)CCC2(C)C`: -6% and 16%.
As to `Cc1cc2c(cc1Cc1ccc(C(=O)NCCSc3cc(C(F)(F)F)nc4ccccc34)o1)C(C)(C)CCC2(C)C`, the inhibition at 1 µM is, setting by setting: under setting [1], -18%; under setting [2], 5%.
As to `Cc1cc2c(cc1Cc1ccc(C(=O)NCc3c(Cl)cccc3Oc3ccccc3)o1)C(C)(C)CCC2(C)C`, the inhibition at 1 µM by setting is: under setting [1], -10%; under setting [2], -15%.
In the case of `Cc1cc2c(cc1Cc1ccc(C(=O)NC3c4ccccc4CC3O)o1)C(C)(C)CCC2(C)C` (stereo not shown), the inhibition at 1 µM under setting [1] was -11% and the inhibition at 1 µM under setting [2] was -29%.
For `Cc1cc2c(cc1Cc1ccc(C(=O)N3CCN(c4ccc(C(F)(F)F)cc4[N+](=O)[O-])CC3)o1)C(C)(C)CCC2(C)C`, the inhibition at 1 µM is, setting by setting: under setting [1], -20%; under setting [2], -21%.
As to `Cc1cc2c(cc1Cc1ccc(C(=O)N3CCN(c4ncccc4C(F)(F)F)CC3)o1)C(C)(C)CCC2(C)C`, the inhibition at 1 µM reads like this: under setting [1], -16%; under setting [2], -29%.
On to `Cc1cc2c(cc1Cc1ccc(C(=O)N3CCN(c4ccc(C(F)(F)F)cn4)CC3)o1)C(C)(C)CCC2(C)C`, for which the inhibition at 1 µM by setting is: under setting [1], -4%; under setting [2], -7%.
Consider `Cc1cc2c(cc1Cc1ccc(C(=O)N3CCCCC3c3ccccc3)o1)C(C)(C)CCC2(C)C` (stereo not shown), for which the inhibition at 1 µM is, setting by setting: under setting [1], -19%; under setting [2], -22%.
The matching figures for `Cc1cc2c(cc1Cc1ccc(C(=O)N3CCN(c4ccncc4)CC3)o1)C(C)(C)CCC2(C)C`: -4% and 11%.
Take `Cc1cc2c(cc1Cc1ccc(C(=O)N3CCN(c4cnccn4)CC3)o1)C(C)(C)CCC2(C)C`: the inhibition at 1 µM reads like this: under setting [1], 3%; under setting [2], 7%.
With `Cc1cc2c(cc1Cc1ccc(C(=O)N3CCN(c4ccccc4[N+](=O)[O-])CC3)o1)C(C)(C)CCC2(C)C`, the inhibition at 1 µM is -15% under setting [1] and -20% under setting [2].
Consider `Cc1cc2c(cc1Cc1ccc(C(=O)N3CCN(c4ccccc4C#N)CC3)o1)C(C)(C)CCC2(C)C`, for which the inhibition at 1 µM reads like this: under setting [1], -5%; under setting [2], 62%.
The matching figures for `Cc1cc2c(cc1Cc1ccc(C(=O)NC(C)c3ccc(O)cc3)o1)C(C)(C)CCC2(C)C` (stereo not shown): -10% and -9%.
The matching figures for `Cc1cc2c(cc1Cc1ccc(C(=O)NCc3ccc(F)c(C(F)(F)F)c3)o1)C(C)(C)CCC2(C)C`: 11% and 16%.
The matching figures for `Cc1cc2c(cc1Cc1ccc(C(=O)N3CCN(c4ccc(O)cc4)CC3)o1)C(C)(C)CCC2(C)C`: -12% and -6%.
`Cc1cc2c(cc1Cc1ccc(C(=O)NCc3ccc(Cl)c(C(F)(F)F)c3)o1)C(C)(C)CCC2(C)C`: the inhibition at 1 µM is, setting by setting: under setting [1], 15%; under setting [2], 19%.
For the compound `CCN(Cc1cc([N+](=O)[O-])ccc1O)C(=O)c1ccc(Cc2cc3c(cc2C)C(C)(C)CCC3(C)C)o1`, the inhibition at 1 µM by setting is: under setting [1], -11%; under setting [2], -5%.
The corresponding values for `Cc1cc2c(cc1Cc1ccc(C(=O)N3CCN(c4ccc(Cl)cc4)CC3)o1)C(C)(C)CCC2(C)C` are -11% and -17%.
`Cc1cc2c(cc1Cc1ccc(C(=O)N3CCN(c4ccccc4Cl)CC3)o1)C(C)(C)CCC2(C)C`: the inhibition at 1 µM is -1% under setting [1] and -7% under setting [2].
For the compound `CCN(CCNC(=O)c1ccc(Cc2cc3c(cc2C)C(C)(C)CCC3(C)C)o1)c1cccc(C)c1`, the inhibition at 1 µM is 2% under setting [1] and 21% under setting [2].
As for `Cc1cc2c(cc1Cc1ccc(C(=O)N(C)CCc3ccccc3)o1)C(C)(C)CCC2(C)C`, the inhibition at 1 µM by setting is: under setting [1], 10%; under setting [2], 9%.
For `Cc1cc2c(cc1Cc1ccc(C(=O)N(Cc3ccccc3F)C3CCN(Cc4ccccc4)C3)o1)C(C)(C)CCC2(C)C` (stereo not shown), the inhibition at 1 µM is, setting by setting: under setting [1], 7%; under setting [2], 9%.
Consider `Cc1cc2c(cc1Cc1ccc(C(=O)NC3Cc4ccccc4C3)o1)C(C)(C)CCC2(C)C`, for which the inhibition at 1 µM under setting [1] worked out at 11% and the inhibition at 1 µM under setting [2] amounted to 15%.
In the case of `Cc1cc2c(cc1Cc1ccc(C(=O)N(CCC3CCCN3C)Cc3ccc(Cl)cc3)o1)C(C)(C)CCC2(C)C` (stereo not shown), the inhibition at 1 µM under setting [1] is -22% and the inhibition at 1 µM under setting [2] is -4%.
With `Cc1cc2c(cc1Cc1ccc(C(=O)N(CCCO)Cc3ccccc3[N+](=O)[O-])o1)C(C)(C)CCC2(C)C`, the inhibition at 1 µM under setting [1] was -5% and the inhibition at 1 µM under setting [2] came to 6%.
The corresponding values for `Cc1cc2c(cc1Cc1ccc(C(=O)NCCc3ccc(Cl)c(Cl)c3)o1)C(C)(C)CCC2(C)C` are -5% and 8%.
The matching figures for `CCc1ccc(CCNC(=O)c2ccc(Cc3cc4c(cc3C)C(C)(C)CCC4(C)C)o2)cc1`: 29% and 32%.
The matching figures for `Cc1cc2c(cc1Cc1ccc(C(=O)NC(C)c3ccc(F)cc3)o1)C(C)(C)CCC2(C)C` (stereo not shown): 28% and 35%.
Consider `Cc1cc2c(cc1Cc1ccc(C(=O)NC(C)c3ccc(Cl)cc3)o1)C(C)(C)CCC2(C)C` (stereo not shown), for which the inhibition at 1 µM runs as follows: under setting [1], 20%; under setting [2], 28%.
The corresponding values for `COc1ccc(CCN(C)C(=O)c2ccc(Cc3cc4c(cc3C)C(C)(C)CCC4(C)C)o2)cc1OC` are 13% and 7%.
The matching figures for `Cc1cc2c(cc1Cc1ccc(C(=O)NCCSCc3c(Cl)cccc3Cl)o1)C(C)(C)CCC2(C)C`: 14% and 20%.
For the compound `Cc1cc2c(cc1Cc1ccc(C(=O)N(C)Cc3ccccc3Cl)o1)C(C)(C)CCC2(C)C`, the inhibition at 1 µM came out at 14% under setting [1] and 21% under setting [2].
The corresponding values for `Cc1cc2c(cc1Cc1ccc(C(=O)N3CCN(c4ccc(C(F)(F)F)cc4)CC3)o1)C(C)(C)CCC2(C)C` are -12% and 1%.
